From article PMC3503449 (Breast cancer research and treatment, 2008)

Target: estrogen receptor α (ERα) (Homo sapiens, UniProt P03372)
Experiment: ERE-luciferase reporter, antagonism of EXE-induced ER activity
Format: cell-based

estrogen receptor α (ERα), sequence (P03372 whole entry): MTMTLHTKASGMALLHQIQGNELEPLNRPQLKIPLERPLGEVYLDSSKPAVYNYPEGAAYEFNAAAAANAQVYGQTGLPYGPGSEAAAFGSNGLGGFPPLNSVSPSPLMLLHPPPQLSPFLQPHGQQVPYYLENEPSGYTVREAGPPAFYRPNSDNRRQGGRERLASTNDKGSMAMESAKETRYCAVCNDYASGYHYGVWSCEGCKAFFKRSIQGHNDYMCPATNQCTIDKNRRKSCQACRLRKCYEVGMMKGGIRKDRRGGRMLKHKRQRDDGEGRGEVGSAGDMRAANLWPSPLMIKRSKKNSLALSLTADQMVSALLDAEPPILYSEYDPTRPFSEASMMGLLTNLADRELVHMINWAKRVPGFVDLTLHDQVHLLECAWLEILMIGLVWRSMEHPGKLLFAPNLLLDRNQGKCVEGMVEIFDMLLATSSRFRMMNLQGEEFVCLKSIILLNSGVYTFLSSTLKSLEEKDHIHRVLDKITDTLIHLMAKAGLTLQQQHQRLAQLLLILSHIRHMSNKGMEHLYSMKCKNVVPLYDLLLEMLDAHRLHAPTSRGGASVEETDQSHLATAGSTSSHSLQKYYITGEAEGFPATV

Compound: C[C@]12CC[C@@H]3c4ccc(O)cc4C[C@@H](CCCCCCCCC[S+]([O-])CCCC(F)(F)C(F)(F)F)[C@H]3[C@@H]1CC[C@@H]2O (stereo partly shown) [ICI, ICI 182780]
- ERE-luciferase reporter, antagonism of EXE-induced ER activity: ER activity was inhibited using the pure ER antagonist ICI
